± gives the expanded uncertainty stated by the source.
Tests used:
[1] = excess molar enthalpy (molar enthalpy of mixing); xn = mol fraction of the nth substance listed; conditions: Liquid, Flow calorimetry
[2] = activity coefficient (dimensionless); of the first substance listed, at infinite dilution; xn = mol fraction of the nth substance listed; conditions: Liquid, Chromatography, x1 = 0

CCCC[N+]1(C)CCCC1.O=S(=O)([N-]S(=O)(=O)C(F)(F)F)C(F)(F)F + C=CCCCC
[1], 363.15 K, 2239 kPa
Conditions | excess molar enthalpy [kJ/mol]
x2 = 0.0587 | 0.139 ± 0.0033
x2 = 0.1135 | 0.268 ± 0.006
x2 = 0.1647 | 0.349 ± 0.0077
x2 = 0.2579 | 0.435 ± 0.0095
x2 = 0.3781 | 0.459 ± 0.01
x2 = 0.4477 | 0.413 ± 0.009
x2 = 0.5104 | 0.361 ± 0.0079
x2 = 0.6185 | 0.279 ± 0.0062
x2 = 0.7086 | 0.223 ± 0.005
x2 = 0.7849 | 0.167 ± 0.0038
x2 = 0.8795 | 0.0849 ± 0.0021

CCCCCC[N+]1(C)CCCC1.O=S(=O)([N-]S(=O)(=O)C(F)(F)F)C(F)(F)F + CCCCC
[1], 363.15 K, 2135 kPa
Conditions | excess molar enthalpy [kJ/mol]
x2 = 0.0699 | 1.11 ± 0.024
x2 = 0.1337 | 0.218 ± 0.0049
x2 = 0.1921 | 0.294 ± 0.0065
x2 = 0.2952 | 0.402 ± 0.0088
x2 = 0.341 | 0.438 ± 0.0096
x2 = 0.4229 | 0.404 ± 0.0088
x2 = 0.4942 | 0.355 ± 0.0078
x2 = 0.5568 | 0.31 ± 0.0069
x2 = 0.6615 | 0.234 ± 0.0052
x2 = 0.7457 | 0.175 ± 0.004
x2 = 0.8147 | 0.13 ± 0.0031
x2 = 0.8979 | 0.0781 ± 0.002
x2 = 0.9635 | 0.0333 ± 0.0012

CCCCCC[N+]1(C)CCCC1.O=S(=O)([N-]S(=O)(=O)C(F)(F)F)C(F)(F)F + CCCCCC
[1], 363.15 K, 1720 kPa
Conditions | excess molar enthalpy [kJ/mol]
x2 = 0.067 | 0.123 ± 0.003
x2 = 0.1285 | 0.24 ± 0.0054
x2 = 0.1852 | 0.338 ± 0.0074
x2 = 0.2375 | 0.42 ± 0.0092
x2 = 0.2859 | 0.479 ± 0.01
x2 = 0.3309 | 0.487 ± 0.011
x2 = 0.483 | 0.387 ± 0.0085
x2 = 0.6514 | 0.263 ± 0.0059

C=CCCCCCCCC [1-decene] + CCCCCC[N+]1(C)CCCC1.O=S(=O)([N-]S(=O)(=O)C(F)(F)F)C(F)(F)F
[2]
Conditions | activity coefficient
303.16 K | 18.8 ± 0.87
313.15 K | 18 ± 0.83
323.15 K | 17.3 ± 0.8
333.16 K | 16.9 ± 0.78

C=CCCCCC [1-heptene] + CCCCCCCC[N+]1(C)CCCC1.O=S(=O)([N-]S(=O)(=O)C(F)(F)F)C(F)(F)F
[2]
Conditions | activity coefficient
313.11 K | 4.37 ± 0.2
323.14 K | 4.22 ± 0.19
333.17 K | 4.1 ± 0.19
343.21 K | 4.02 ± 0.18

C=CCCCCC [1-heptene] + CCCCCC[N+]1(C)CCCC1.O=S(=O)([N-]S(=O)(=O)C(F)(F)F)C(F)(F)F
[2]
Conditions | activity coefficient
303.14 K | 6.5 ± 0.3
313.16 K | 6.31 ± 0.29
323.37 K | 6.11 ± 0.28
333.16 K | 6 ± 0.27

C=CCCCCC [1-heptene] + CCCC[N+]1(C)CCCC1.O=S(=O)([N-]S(=O)(=O)C(F)(F)F)C(F)(F)F
[1], 413.15 K, 2239 kPa
Conditions | excess molar enthalpy [kJ/mol]
x1 = 0.0525 | 0.135 ± 0.0032
x1 = 0.1022 | 0.26 ± 0.0058
x1 = 0.1492 | 0.376 ± 0.0082
x1 = 0.2762 | 0.471 ± 0.01
x1 = 0.3509 | 0.419 ± 0.0091
x1 = 0.4189 | 0.382 ± 0.0084
x1 = 0.481 | 0.338 ± 0.0074
x1 = 0.5904 | 0.26 ± 0.0058
x1 = 0.6838 | 0.21 ± 0.0047
x1 = 0.7643 | 0.146 ± 0.0034
x1 = 0.8664 | 0.0852 ± 0.0022
x1 = 0.9511 | 0.0381 ± 0.0012

C=CCCC [1-pentene] + CCCCCCCC[N+]1(C)CCCC1.O=S(=O)([N-]S(=O)(=O)C(F)(F)F)C(F)(F)F
[2]
Conditions | activity coefficient
303.14 K | 2.5 ± 0.11
313.13 K | 2.43 ± 0.11
323.11 K | 2.33 ± 0.11
343.11 K | 2.25 ± 0.1

From the NIST ThermoML archive (doi:10.1016/j.fluid.2008.11.013)
